Measurements reported in patent US12403161B2, “Compositions for drug delivery and methods of use thereof” (Stellular Bio, Inc., priority 2018, dated 2025).
Structures can show the parent of a compound that is named as a salt.

What was measured:
[1] = test system: iPSC differentiation cultures; assay: Order and timing of Stage 1 growth factor addition, preMK yields; assay type: cell-based, human; conditions: Experiment B
[2] = test system: iPSC 3D differentiation cultures; assay: Soluble Laminin 521 addition in 3D iPSC differentiation, preMK yields; assay type: cell-based, human; conditions: for preMK yields in Stage 2 vs control without addition: addition at Day −1 or Day 6
Procedure: […] 24 hours later, the media was replaced with Stage 1 media and media exchanges were performed for 6 days. […] Media was then exchanged with Stage 2 media, with or without soluble Laminin 521. 24 hours later, daily half media exchanges were performed for up to 6 additional days.

[3] = test system: iPSC differentiation cultures on Laminin 521; assay: WNT agonist addition to iPSC directed differentiation (immunofluorescence); assay type: cell-based, human; conditions: for Stage 1 differentiation efficiency at day 6 (CD31 and CD34 immunofluorescence): 0.6 μM CHIR98014 or 6 μM CHIR99021 for the first 48 hours
Excerpt: WNT signaling is important during development. The GSK3 kinase inhibitors CHIR98014 and CHIR99021 act as WNT agonists. […] The control and CHIR98014 cultures were then transitioned to Stage 2, where the production and release of preMKs were tracked by immunofluorescence staining of CD41 and CD43.

human washed platelets = assay: Small-molecule loading of human washed platelets by passive diffusion; assay type: cell-based; conditions: 100 μM, 1e7 platelets in 1 ml, ambient temperature, dialysis cassette
Procedure: 100 μM of Doxorubicin was used with a preparation of 1e7 platelets in 1 ml of buffer and incubated at ambient temperature for 30, 120, 240, and 1440 minutes under constant agitation on an orbital shaker in a dialysis cassette (Thermofisher #88400). […] A kinetic study was employed to understand the minimum and maximum amount of time necessary for doxorubicin encapsulation in the washed platelets.

FGF2: basic fibroblast growth factor, Stage 1 media growth factor
requirement of growth factor during Stage 1 differentiation [1]: critical for differentiation to proceed effectively

Laminin 521: soluble recombinant human protein Laminin 521
preMK yields in Stage 2 vs control without addition ([2]; 96-well U-bottom ultra-low adherent plate): increased the preMK yields
preMK yields in Stage 2 vs control without addition ([2]; agitated 6-well ultra-low adherent plate on orbital shaker): increased the preMK yields
Laminin 521 effect on preMK yields with single-cell passaged iPSCs ([2]; self-aggregation in NutriStem): effect was amplified

CHIR98014
Stage 1 differentiation efficiency at day 6 (CD31 and CD34 immunofluorescence) [3]: dramatic increase
Stage 2 output (visual estimation of CD41+ cells) ([3]; 0.6 μM in first 48 hours of Stage 1): higher output

COc1cccc2c1C(=O)c1c(O)c3c(c(O)c1C2=O)C[C@@](O)(C(=O)CO)C[C@@H]3O[C@H]1C[C@H](N)[C@H](O)[C@H](C)O1 [doxorubicin, Doxorubicin hydrochloride]
incubation time sufficient to see detectable doxorubicin in platelets (human washed platelets): 30 min

Cc1c[nH]c(-c2cnc(NCCNc3ccc(C#N)cn3)nc2-c2ccc(Cl)cc2Cl)n1 [CHIR99021]
Stage 1 differentiation efficiency at day 6 (CD31 and CD34 immunofluorescence) [3]: dramatic increase

B1: BMP4: bone morphogenic protein 4, Stage 1 media growth factor (protein, UniProt P12644 293-408, looked up)
Bone morphogenetic protein 4: SPKHHSQRARKKNKNCRRHSLYVDFSDVGWNDWIVAPPGYQAFYCHGDCPFPLADHLNSTNHAIVQTLVNSVNSSIPKACCVPTELSAISMLYLDEYDKVVLKNYQEMVVEGCGCR
requirement of growth factor during Stage 1 differentiation [1]: dispensable beyond 24 hours
